Measured values from patent publication US6737383B1, “Herbicidal oxadiazolidines” (priority 1999, dated 2004).

Columns and labels:
corn = assay: Test B pre/postemergence corn; type: in vivo, Zea mays
Method in brief: (§1)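 Response is a visual 0-to-10 score relative to untreated plants, where 0 means no effect and 10 means complete control, taken twelve to sixteen days after application. Treatments went onto soil at planting and onto foliage of 1- to 4-leaf plants, using a surfactant-containing non-phytotoxic solvent.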

bamyardgrass = assay: Test B flood test barnyardgrass; type: in vivo, Echinochloa crus-galli
Method in brief: (§2)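 Read-out is a visual response score from 0 (no effect) to 10 (complete control), assigned by comparison with untreated controls. Treatment was applied at the 2-leaf stage, and plants stayed in the greenhouse for twelve to sixteen days before scoring.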

soybean = assay: Test B pre/postemergence soybean; type: in vivo, Glycine max
Method in brief: as §1

duck salad = assay: Test B flood test duck salad; type: in vivo, Heteranthera limosa
Method in brief: as §2

blackgrass = assay: Test B pre/postemergence blackgrass; type: in vivo, Alopecurus myosuroides
Method in brief: as §1

rape = assay: Test B pre/postemergence rape; type: in vivo, Brassica napus
Method in brief: as §1

rice = assay: Test B flood test rice; type: in vivo, Oryza sativa
Method in brief: as §2

wild oat = assay: Test B pre/postemergence wild oat; type: in vivo, Avena fatua
Method in brief: as §1

smallflower flatsedge = assay: Test B flood test smallflower flatsedge; type: in vivo, Cyperus difformis
Method in brief: as §2

sugar beet = assay: Test B pre/postemergence sugar beet; type: in vivo, Beta vulgaris
Method in brief: as §1

pigweed = assay: Test B pre/postemergence pigweed; type: in vivo, Amaranthus retroflexus
Method in brief: as §1

bedstraw = assay: Test B pre/postemergence bedstraw; type: in vivo, Galium aparine
Method in brief: as §1

cocklebur = assay: Test B pre/postemergence cocklebur; type: in vivo, Xanthium strumarium
Method in brief: as §1

surinam grass = assay: Test B pre/postemergence surinam grass; type: in vivo, Brachiaria decumbens
Method in brief: as §1

wheat = assay: Test B pre/postemergence wheat; type: in vivo, Triticum aestivum
Method in brief: as §1

velvetleaf = assay: Test B pre/postemergence velvetleaf; type: in vivo, Abutilon theophrasti
Method in brief: as §1

purple nutsedge = assay: Test B pre/postemergence purple nutsedge; type: in vivo, Cyperus rotundus
Method in brief: as §1

giant foxtail = assay: Test B pre/postemergence giant foxtail; type: in vivo, Setaria faberii
Method in brief: as §1

crabgrass = assay: Test B pre/postemergence crabgrass; type: in vivo, Digitaria sanguinalis
Method in brief: as §1

morningglory = assay: Test B pre/postemergence morningglory; type: in vivo, Ipomoea hederacea
Method in brief: as §1

[1] = Postemergence, Rate 62 g/ha, scale 0 to 10, 0 is no effect, 10 is complete control
[2] = Postemergence, Rate 125 g/ha, scale of 0 to 10 where 0 is no effect and 10 is complete control
[3] = Postemergence, Rate 250 g/ha, scale of 0 to 10, 0 is no effect, 10 is complete control
[4] = Postemergence, Rate 500 g/ha, scale of 0 to 10 where 0 is no effect and 10 is complete control
[5] = Preemergence, Rate 62 g/ha, scale 0 to 10 (0 no effect, 10 complete control)
[6] = Preemergence, Rate 125 g/ha, scale of 0 to 10 where 0 is no effect and 10 is complete control
[7] = Preemergence, Rate 250 g/ha, scale 0 to 10 (0 no effect, 10 complete control)
[8] = Preemergence, Rate 500 g/ha, scale of 0 to 10 where 0 is no effect and 10 is complete control
[9] = Rate 62 g/ha, flood test species, Pre-emergence, visual evaluation after twelve to sixteen days
[10] = Rate 125 g/ha, under heading Pre-emergence, flood test species, visual evaluation after twelve to sixteen days
[11] = Rate 250 g/ha, Pre-emergence (flood test species), scale 0 to 10, 0 is no effect, 10 is complete control
[12] = Rate 500 g/ha, Pre-emergence section of Table B, 0 to 10 scale (0 no effect, 10 complete control)

COCCn1c(=O)on(C(=O)N(c2ccc(F)cc2F)C(C)C)c1=O [Compound 628]
Plant response rating, Corn (corn; [1]): 0
Plant response rating, Corn (corn; [2]): 6
Corn plant response rating (corn; [3]): 7
Plant response rating, Corn (corn; [4]): 7
Corn plant response rating (corn; [5]): 3
Corn plant response rating (corn; [6]): 6
Plant response rating, Corn (corn; [7]): 7
Plant response rating, Corn (corn; [8]): 9
Plant response rating, Barnyardgrass (0 to 10 scale, 0 is no effect, 10 is complete control) (bamyardgrass; [9]): 0
Barnyardgrass plant response rating (0 to 10 scale, 0 is no effect, 10 is complete control) (bamyardgrass; [10]): 0
Barnyardgrass plant response rating (bamyardgrass; [11]): 0
Barnyardgrass plant response rating (bamyardgrass; [12]): 0
Plant response rating, Soybean (soybean; [1]): 4
Soybean plant response rating (soybean; [5]): 0
Soybean plant response rating (soybean; [6]): 0
Plant response rating, Soybean (soybean; [7]): 4
Plant response rating, Soybean (soybean; [8]): 7
Plant response rating, Ducksalad (0 to 10 scale, 0 is no effect, 10 is complete control) (duck salad; [9]): 0
Ducksalad plant response rating (0 to 10 scale, 0 is no effect, 10 is complete control) (duck salad; [10]): 0
Ducksalad plant response rating (duck salad; [11]): 0
Ducksalad plant response rating (duck salad; [12]): 0
Plant response rating, Blackgrass (blackgrass; [1]): 6
Plant response rating, Blackgrass (blackgrass; [2]): 8
Blackgrass plant response rating (blackgrass; [3]): 9
Plant response rating, Blackgrass (blackgrass; [4]): 9
Blackgrass plant response rating (blackgrass; [5]): 6
Blackgrass plant response rating (blackgrass; [6]): 9
Plant response rating, Blackgrass (blackgrass; [7]): 10
Plant response rating, Blackgrass (blackgrass; [8]): 10
Plant response rating, Rape (rape; [1]): 0
Plant response rating, Rape (rape; [2]): 0
Rape plant response rating (rape; [3]): 3
Plant response rating, Rape (rape; [4]): 6
Rape plant response rating (rape; [5]): 0
Rape plant response rating (rape; [6]): 2
Plant response rating, Rape (rape; [7]): 4
Plant response rating, Rape (rape; [8]): 9
Plant response rating, Rice (0 to 10 scale, 0 is no effect, 10 is complete control) (rice; [9]): 0
Rice plant response rating (0 to 10 scale, 0 is no effect, 10 is complete control) (rice; [10]): 0
Rice plant response rating (rice; [11]): 0
Rice plant response rating (rice; [12]): 0
Plant response rating, Wild oats (wild oat; [1]): 0
Plant response rating, Wild oats (wild oat; [2]): 3
Wild oats plant response rating (wild oat; [3]): 5
Wild oats plant response rating (wild oat; [6]): 2
Plant response rating, Wild oats (wild oat; [7]): 8
Plant response rating, Wild oats (wild oat; [8]): 10
Plant response rating, S. Flatsedge (0 to 10 scale, 0 is no effect, 10 is complete control) (smallflower flatsedge; [9]): 0
S. Flatsedge plant response rating (0 to 10 scale, 0 is no effect, 10 is complete control) (smallflower flatsedge; [10]): 0
S. Flatsedge plant response rating (smallflower flatsedge; [11]): 0
S. Flatsedge plant response rating (smallflower flatsedge; [12]): 0
Plant response rating, Sugarbeets (sugar beet; [1]): 0
Plant response rating, Sugarbeets (sugar beet; [2]): 0
Sugarbeets plant response rating (sugar beet; [3]): 3
Sugarbeets plant response rating (sugar beet; [5]): 3
Sugarbeets plant response rating (sugar beet; [6]): 4
Plant response rating, Sugarbeets (sugar beet; [7]): 7
Plant response rating, Sugarbeets (sugar beet; [8]): 7
Plant response rating, Redroot pigweed (pigweed; [1]): 3
Plant response rating, Redroot pigweed (pigweed; [2]): 3
Redroot pigweed plant response rating (pigweed; [3]): 7
Redroot pigweed plant response rating (pigweed; [5]): 8
Redroot pigweed plant response rating (pigweed; [6]): 9
Plant response rating, Redroot pigweed (pigweed; [7]): 9
Plant response rating, Redroot pigweed (pigweed; [8]): 10
Plant response rating, Bedstraw (bedstraw; [1]): 0
Bedstraw plant response rating (bedstraw; [5]): 6
Bedstraw plant response rating (bedstraw; [6]): 7
Plant response rating, Bedstraw (bedstraw; [7]): 10
Plant response rating, Bedstraw (bedstraw; [8]): 10
Plant response rating, Cocklebur (cocklebur; [1]): 0
Plant response rating, Cocklebur (cocklebur; [2]): 1
Cocklebur plant response rating (cocklebur; [3]): 6
Plant response rating, Cocklebur (cocklebur; [4]): 7
Cocklebur plant response rating (cocklebur; [5]): 2
Cocklebur plant response rating (cocklebur; [6]): 3
Plant response rating, Cocklebur (cocklebur; [7]): 4
Plant response rating, Cocklebur (cocklebur; [8]): 7
Plant response rating, B. signalgrass (surinam grass; [1]): 2
Plant response rating, B. signalgrass (surinam grass; [2]): 8
B. signalgrass plant response rating (surinam grass; [3]): 8
Plant response rating, B. signalgrass (surinam grass; [4]): 8
B. signalgrass plant response rating (surinam grass; [5]): 3
B. signalgrass plant response rating (surinam grass; [6]): 7
Plant response rating, B. signalgrass (surinam grass; [7]): 8
Plant response rating, B. signalgrass (surinam grass; [8]): 10
Plant response rating, Wheat (wheat; [1]): 0
Plant response rating, Wheat (wheat; [2]): 4
Wheat plant response rating (wheat; [3]): 7
Wheat plant response rating (wheat; [5]): 3
Wheat plant response rating (wheat; [6]): 3
Plant response rating, Wheat (wheat; [7]): 7
Plant response rating, Wheat (wheat; [8]): 10
Plant response rating, Velvetleaf (velvetleaf; [1]): 6
Plant response rating, Velvetleaf (velvetleaf; [2]): 6
Velvetleaf plant response rating (velvetleaf; [3]): 8
Velvetleaf plant response rating (velvetleaf; [5]): 7
Plant response rating, Velvetleaf (velvetleaf; [7]): 9
Plant response rating, Velvetleaf (velvetleaf; [8]): 10
Plant response rating, Nutsedge (purple nutsedge; [1]): 0
Nutsedge plant response rating (purple nutsedge; [5]): 3
Nutsedge plant response rating (purple nutsedge; [6]): 6
Plant response rating, Nutsedge (purple nutsedge; [7]): 6
Plant response rating, Nutsedge (purple nutsedge; [8]): 9
Plant response rating, Giant foxtail (giant foxtail; [1]): 8
Plant response rating, Giant foxtail (giant foxtail; [2]): 9
Giant foxtail plant response rating (giant foxtail; [3]): 9
Plant response rating, Giant foxtail (giant foxtail; [4]): 9
Giant foxtail plant response rating (giant foxtail; [5]): 10
Giant foxtail plant response rating (giant foxtail; [6]): 10
Plant response rating, Giant foxtail (giant foxtail; [7]): 10
Plant response rating, Giant foxtail (giant foxtail; [8]): 10
Plant response rating, Crabgrass (crabgrass; [1]): 8
Crabgrass plant response rating (crabgrass; [3]): 9
Plant response rating, Crabgrass (crabgrass; [4]): 9
Crabgrass plant response rating (crabgrass; [5]): 8
Crabgrass plant response rating (crabgrass; [6]): 8
Plant response rating, Crabgrass (crabgrass; [7]): 9
Plant response rating, Crabgrass (crabgrass; [8]): 10
Plant response rating, Morningglory (morningglory; [1]): 1
Plant response rating, Morningglory (morningglory; [2]): 2
Morningglory plant response rating (morningglory; [3]): 2
Plant response rating, Morningglory (morningglory; [4]): 2
Morningglory plant response rating (morningglory; [5]): 5
Morningglory plant response rating (morningglory; [6]): 5
Plant response rating, Morningglory (morningglory; [7]): 5
Plant response rating, Morningglory (morningglory; [8]): 7
